Publication PMC8232621, “Antimicrobial Activity of a Library of Thioxanthones and Their Potential as Efflux Pump Inhibitors” (Pharmaceuticals, 2021)

Tested on: the used strains
Test: Antibacterial activity (MIC), strains not specified
Type: cell-based
Details: concentrations tested; results not shown
Description: The minimum inhibitory concentration (MIC) for each compound was determined by broth microdilution method in a 96-well plate according to the Clinical and Laboratory Standard Institute (CLSI) guidelines. The medium used was MHB II. […] DMSO was used in subinhibitory concentrations (1% v/v). The MIC was determined by visual inspection.

## NS(=O)(=O)c1ccc(C(=O)O)cc1 [4-sulfamoylbenzoic acid]
  MIC: did not display an observable MIC
